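Protocol summary: plate cells (96-well), add compound at 5 concentrations, incubate 48 h, interpolate endpoints linearly. Abbreviation: GI50, concentration required for 50% inhibition of growth.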 The source made the active and inactive calls. Cut-off read from the data, not from the text of the source: active = GI50 up to about 1.1 µM and inactive = higher.
Legend:
Assay in all cases: NCI-60 cell line screen, 48 h
[1] = system: SF-539
[2] = system: PC-3
[3] = system: HCT-116
[4] = system: UACC-257
[5] = system: TK-10
[6] = system: HOP-62
[7] = system: K562
[8] = system: MDA-MB-231
[9] = system: IGROV-1
[10] = system: SK-MEL-5
[11] = system: MOLT-4
[12] = system: EKVX
[13] = system: ACHN
[14] = system: SNB-19
[15] = system: U-251
[16] = system: UO-31
[17] = system: NCI-H460
[18] = system: SW-620
[19] = system: SK-MEL-2
[20] = system: HT-29
[21] = system: OVCAR-8
[22] = system: CCRF-CEM
[23] = system: RXF 393
[24] = system: T47D
[25] = system: SNB-75
[26] = system: A549
[27] = system: M14
[28] = system: UACC-62
[29] = system: LOX IMVI
[30] = system: HCC 2998
[31] = system: DU-145
[32] = system: SR
[33] = system: MDA-MB-435
[34] = system: OVCAR-3
[35] = system: SN12C
[36] = system: HL-60
[37] = system: SF-295
[38] = system: COLO 205
[39] = system: NCI-H226
[40] = system: KM12
[41] = system: SK-OV-3
[42] = system: CAKI-1
[43] = system: NCI-H23
[44] = system: RPMI-8226
[45] = system: Hs-578T
[46] = system: HOP-92
[47] = system: HCT-15
[48] = system: OVCAR-4
[49] = system: NCI-H522
[50] = system: MDA-N
[51] = system: OVCAR-5
[52] = system: 786-0
[53] = system: SK-MEL-28
[54] = system: NCI/ADR-RES
[55] = system: SF-268
[56] = system: MCF7
[57] = system: BT-549
[58] = system: Malme-3M

Measured: GI50

O=C(O)CNC(=O)CO/N=C1/C(=C2/C(=O)Nc3ccccc32)Nc2ccccc21
inactive: [1] > 100 µM | [2] 60.8 µM | [3] > 100 µM | [4] > 100 µM | [5] > 100 µM | [6] 27.4 µM | [7] > 100 µM | [8] > 100 µM | [9] 72.6 µM | [10] 54.2 µM | [11] 70.3 µM | [12] 94.6 µM | [13] > 100 µM | [14] 70.5 µM | [15] > 100 µM | [16] 26.5 µM | [17] > 100 µM | [18] > 100 µM | [19] > 100 µM | [20] > 100 µM | [21] > 100 µM | [22] 42.8 µM | [23] 55.1 µM | [24] 56.9 µM | [25] > 100 µM | [26] 86.5 µM | [27] > 100 µM | [28] > 100 µM | [29] > 100 µM | [30] 47 µM | [31] > 100 µM | [32] 38.5 µM | [33] > 100 µM | [34] 42.2 µM | [35] > 100 µM | [36] 57.9 µM | [37] > 100 µM | [38] 46.2 µM | [39] > 100 µM | [40] 4.9 µM | [41] 20.9 µM | [42] 28.1 µM | [43] > 100 µM | [44] > 100 µM | [45] > 100 µM | [46] > 100 µM | [48] > 100 µM | [49] > 100 µM | [50] 84.9 µM | [51] > 100 µM | [52] > 100 µM | [53] > 100 µM | [54] > 100 µM | [55] > 100 µM | [56] 72.4 µM | [57] > 100 µM | [58] > 100 µM
51.8 µM: [47]

Reference: ChEMBL document CHEMBL1201862, “PubChem BioAssay data set” (2004)
